Here are results for 8 compounds from ChEMBL document CHEMBL1926508, “Pharmacophore-based discovery of FXR agonists. Part I: Model development and experimental validation” (Bioorg Med Chem, 2011).

Assay [1] addresses T1, Bile acid receptor (Mus musculus) (UniProt Q60641).
T1 sequence (whole entry): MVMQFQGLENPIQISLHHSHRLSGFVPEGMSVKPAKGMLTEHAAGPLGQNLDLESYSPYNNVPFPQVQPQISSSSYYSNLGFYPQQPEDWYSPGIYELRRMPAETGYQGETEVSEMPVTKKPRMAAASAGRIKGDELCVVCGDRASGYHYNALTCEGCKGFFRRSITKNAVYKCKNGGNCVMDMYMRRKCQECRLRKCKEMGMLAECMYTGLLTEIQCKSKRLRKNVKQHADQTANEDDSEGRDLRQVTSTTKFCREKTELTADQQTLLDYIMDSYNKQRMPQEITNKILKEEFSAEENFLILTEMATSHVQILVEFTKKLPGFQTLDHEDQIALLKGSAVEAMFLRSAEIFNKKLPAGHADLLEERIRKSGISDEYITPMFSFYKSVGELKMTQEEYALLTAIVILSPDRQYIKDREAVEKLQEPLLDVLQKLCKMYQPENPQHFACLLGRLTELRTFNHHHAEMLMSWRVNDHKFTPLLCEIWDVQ
In words: Agonist activity at mouse FXR expressed in HEK293 cells co-expressing mouse RXRalpha and ECRE-luc up to 100 uM by luciferase reporter gene assay. The class given is functional, cell-based. (In general: Reporter assays use an easily measured gene product as a stand-in for the process of interest.)

For assay [2], the target named is T1, Bile acid receptor (Mus musculus). In words: Agonist activity at mouse FXR expressed in HEK293 cells co-expressing mouse RXRalpha and ECRE-luc by luciferase reporter gene assay. Type of assay: functional, cell-based.

The source made the active and inactive calls. The calls are words filed in the database; no cut-off is given here.

Take `O=C(O)c1cnc2cc(OCCOc3ccc(F)cc3)ccc2c1O`: the outcome in assay [1] was inactive.
As for `COc1ccc(N2CCN(C[C@H](O)COc3cc4c(c5c3CCCC5)CCCC4)CC2)cc1`, in assay [2], the Activity entry was “Dose-dependent effect”.
Turning to `C1=C(c2ccc(OCc3ccccc3)c(OCc3ccccc3)c2)CC2CCCCC2C1` (stereo not drawn), the result in assay [1] was inactive.
The same measure, in the same setting: to `Cc1cc(C(=O)CCCCCCCCC(=O)O)ccc1O` belongs “inactive”; to `C[C@]12CC[C@H]3[C@@H](CCC4CC(=O)/C(=C\C(F)(F)F)C[C@@]43C)[C@@H]1CC[C@@H]2C(=O)O` (stereo partly drawn), “inactive”; to `O=C(O)c1ccc(C(=O)c2ccc(C(=O)c3ccc(C(=O)O)cc3)cc2)cc1`, “inactive”.
Same read-out and setting: to `COc1ccc(/C(C)=N/NC(=O)CC(=O)N(C(=O)c2ccccc2)c2ccc(C)cc2)cc1` belongs “inactive”.
Turning to `CCCCc1ccc([C@@H](CC(=O)c2ccccc2)c2ccccc2)cc1`, in assay [2], the Activity entry is “Dose-dependent effect”.
